Test results as given in paper PMC9124866, “Structure-Activity Relationships of Dopamine Transporter Pharmacological Chaperones” (Frontiers in Cellular Neuroscience, 2022).

Experiments:
[1] = biological target: T1, K590A DAT (Homo sapiens, UniProt Q01959, K590A); test: Western blot of mature K590A DAT protein levels; format: cell-based; conditions: overnight treatment
T1 construct: expressed in transfected cells; host or cells: HEK293
Procedure: Cells (1 × 10^6 cells/well) were seeded onto a 6-well plate and incubated for 24 h. Cells were then treated with drugs and incubated for 16 h. After the incubation period, cells were lysed in RIPA buffer supplemented with protease inhibitors (working concentrations: pepstatin A, 5 μg/mL; leupeptin, 10 μg/mL; aprotinin, 1.5 μg/mL; benzamidine, 0.1 μg/mL; PMSF, 0.1 mM) on ice. At 4°C, cell lysates were gently shaken for 15 min followed by centrifugation at 15,000 rpm for 15 min to pellet debris. The Pierce BCA protein assay kit (Thermo Fisher Scientific, Canada) was used to determine the protein concentration of the supernatant. To reach a concentration of 40 μg of protein per 20 μL, samples were diluted in fresh RIPA buffer with 12.5% Laemmli sample buffer and 2.5% β-Mercaptoethanol prior to being heated to 55°C. The protein was then loaded on a 7.5 or 10% SDS-PAGE gel and run at 100 V for approximately an hour or until the dye front reached the bottom of the gel. Next, protein was transferred to a PVDF membrane at 22 V for 16 h or 100 V for 1 h. Blots were blocked with LI-COR blocking buffer for 1 h and incubated for 1 h at room temperature with rabbit anti-GFP (1:1,000 dilution; Life Technologies, cat#A11122). After washing three times with TBST, blots were incubated with goat anti-rabbit IRDye-680RD secondary antibody (1:15,000; LI-COR, cat#926-68071). As a loading control, blots were incubated with mouse anti-GAPDH (1:5,000, Sigma-Aldrich, Canada, cat#G8795) prior to secondary antibody goat anti-mouse IRDye-800GR (1:5,000 dilution, Rockland, Limerick, PA, cat#610-132-007). All antibodies were diluted in LI-COR blocking buffer. Additionally, REVERT total protein staining (LI-COR, Lincoln, NE) was used as a loading control. […] Mature, fully glycosylated DAT (mDAT = 110 kDa) and immature, ER-resident DAT (iDAT = 75 kDa) were visualized using the Odyssey Imaging System (LI-COR, Lincoln, NE) and Image Studio Version 5.2 software (Supplementary Figure 1).
We next assessed whether drugs that increase DAT surface expression also increase total protein levels of DAT. Cells expressing YFP-HA-DAT were incubated with select test compounds and DAT protein levels were examined by western blot. The effects of the compounds were assessed on WT DAT and K590A DAT. The K590A mutant is a well-characterized ER-retained, trafficking-deficient DAT mutant ([Miranda et al., 2004]) that can be rescued by pharmacological chaperones ([Beerepoot et al., 2016]).
FIGURE 5 Effect of noribogaine, tetrahydroharmine, PAL-594, bicifadine, and RTI-20 on WT and K590A DAT expression. […] (B) Quantification of WT mDAT protein levels. […] (D) Quantification of K590A mDAT protein levels. […]

[2] = biological target: T2, DAT (Homo sapiens, UniProt Q01959); test: Dopamine uptake inhibition dose response of hit compounds (Figure 6); format: cell-based; conditions: doses 1 nM to 100 μM, normalized to vehicle
T2 construct: expressed in transfected cells
Procedure: Dopamine uptake inhibition was conducted using the Neurotransmitter Transporter Uptake Assay Kit (Molecular Devices, prod#R8173). Cells (1 × 10^5/well) were seeded into 96-well plates and incubated for 24 h. The cells were subjected to overnight drug treatment. The following day, wells were washed and incubated for 30 min with a mixture of 1X Hank’s Balanced Salt Solution (HBSS) and 0.1% Bovine Serum Albumin (BSA) Buffer. Dopamine uptake inhibitors were added during the incubation period. Following the incubation, the fluorescent dye was added, and the plate was immediately transferred to the bottom-read fluorescence microplate reader (Spectramax M3, Molecular Devices) for kinetic read-mode. The assay reads the amount of fluorescent activity which increases as fluorescent dye molecules are transported into the cells by the DAT. The read-out for this assay is the slope which equals the fluorescent measurements/time, ultimately denoting the uptake rate.
Data analysis was performed using GraphPad Prism (GraphPad Software, La Jolla, CA). Linear regression analysis was performed on βLAC time points to determine the slope, thus the rate of reaction, for comparison. Furthermore, the slope was also used to determine the degree of dopamine uptake in the dopamine uptake assays. […]

T2 sequence (Q01959 whole entry): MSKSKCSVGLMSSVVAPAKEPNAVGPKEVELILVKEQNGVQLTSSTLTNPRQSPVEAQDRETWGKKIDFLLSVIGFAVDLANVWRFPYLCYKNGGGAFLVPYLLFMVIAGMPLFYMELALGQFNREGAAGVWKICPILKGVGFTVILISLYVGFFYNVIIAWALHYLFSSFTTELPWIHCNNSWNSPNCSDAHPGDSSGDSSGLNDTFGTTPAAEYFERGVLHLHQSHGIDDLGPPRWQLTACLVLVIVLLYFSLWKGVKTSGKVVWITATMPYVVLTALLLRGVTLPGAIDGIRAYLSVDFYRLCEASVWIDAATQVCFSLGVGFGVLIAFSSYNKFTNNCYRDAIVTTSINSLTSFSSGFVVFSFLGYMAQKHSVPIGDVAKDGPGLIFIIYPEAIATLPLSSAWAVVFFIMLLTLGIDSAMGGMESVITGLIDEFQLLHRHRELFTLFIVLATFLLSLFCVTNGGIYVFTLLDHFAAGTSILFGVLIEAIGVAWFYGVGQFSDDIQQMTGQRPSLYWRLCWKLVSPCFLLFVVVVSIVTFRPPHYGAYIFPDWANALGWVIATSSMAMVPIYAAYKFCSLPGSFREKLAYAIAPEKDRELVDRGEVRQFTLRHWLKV
T1 sequence (Q01959 whole entry K590A): as the sequence (Q01959 whole entry) above, with K590A counted along it

## CCC1CC2CC3c4[nH]c5ccc(O)cc5c4CCN(C2)C13 (centres unmarked) [Noribogaine, reference compound]
[1]
  K590A DAT (mDAT) protein levels: statistically significant effect
[2]
  maximal dopamine uptake inhibition: 76%
